# Read-outs that look alike come from different tables or passages of the source.
# Legend:
# [1] = PAMPA blood brain barrier permeability; type: in vitro ADME
# Method: The ability of compounds, especially those intended to act in the CNS, to penetrate the blood-brain barrier (BBB) is an important property to consider in the initial stages of drug candidate screening. The PAMPA assay is a commonly used test to assess the passive permeation of the BBB [17]. In our study, caffeine was used as a highly permeable compound. […] After 5 h of incubation at room temperature, the results were analyzed by LC-MS, and the permeability coefficients (Pe) were calculated.
# For permeability evaluation, a PAMPA Gentest™ pre-coated […] system, provided by Corning (Tewksbury, MA, USA), was used. The precise procedure was previously described. The permeability coefficient Pe was calculated based on the given equations. Concentrations of the tested compounds in the apical and basolateral wells were determined by LC/MS analysis using an internal standard.
# human adenosine A2AR = biological target: T1, human adenosine A2AR (Homo sapiens, UniProt P29274); details: cited from earlier work
# T1 construct: expressed in transfected cells; host or cells: CHO cells
# [2] = biological target: other adenosine receptors; details: cited from earlier work
# human adenosine A1R = biological target: T2, human adenosine A1R (Homo sapiens, UniProt P30542); details: cited from earlier work; for Ki: human
# T2 construct: expressed in transfected cells; host or cells: CHO cells
# T2 sequence (P30542 1-326): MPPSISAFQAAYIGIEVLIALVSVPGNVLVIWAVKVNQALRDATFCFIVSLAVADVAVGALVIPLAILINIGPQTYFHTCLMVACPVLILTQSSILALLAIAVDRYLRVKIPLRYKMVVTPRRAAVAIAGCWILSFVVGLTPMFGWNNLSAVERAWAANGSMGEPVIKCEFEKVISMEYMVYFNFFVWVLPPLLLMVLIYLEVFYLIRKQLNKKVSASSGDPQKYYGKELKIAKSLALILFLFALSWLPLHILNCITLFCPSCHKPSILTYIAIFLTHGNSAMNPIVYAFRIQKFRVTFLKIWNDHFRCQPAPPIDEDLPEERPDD
# [3] = tested on: carrageenan-induced edema in mice; parameters: method as in PMID 25735490; details: 100 mg/kg ip, cited from earlier work
# [4] = parameters: method as in PMID 30254599; details: LPD and ibotenate models; cited from earlier work
# [5] = parameters: method as in PMID 21235574; details: animal studies; cited from earlier work
# [6] = tested on: carrageenan-induced edema in rats; parameters: method as in PMID 32629282; details: 20 mg/kg ip; cited from earlier work
# human adenosine A2BR = biological target: T3, human adenosine A2BR (Homo sapiens, UniProt P29275); parameters: method as in PMID 32629282; details: cited from earlier work
# T3 construct: expressed in transfected cells; host or cells: CHO cells
# T3 sequence (P29275 1-332): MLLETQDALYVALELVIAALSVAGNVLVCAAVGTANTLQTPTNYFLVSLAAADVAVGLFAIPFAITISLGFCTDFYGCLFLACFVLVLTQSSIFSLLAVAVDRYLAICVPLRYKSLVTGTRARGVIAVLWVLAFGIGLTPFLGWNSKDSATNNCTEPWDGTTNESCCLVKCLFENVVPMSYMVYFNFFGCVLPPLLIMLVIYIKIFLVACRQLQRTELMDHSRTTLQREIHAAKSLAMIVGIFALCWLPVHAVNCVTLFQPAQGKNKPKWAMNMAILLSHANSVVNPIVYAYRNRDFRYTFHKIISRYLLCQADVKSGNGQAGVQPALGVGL
# human adenosine A3R = biological target: T4, human adenosine A3R (Homo sapiens, UniProt P0DMS8); parameters: method as in PMID 32629282; details: cited from earlier work
# T4 construct: expressed in transfected cells; host or cells: CHO cells
# T4 sequence (P0DMS8 1-318): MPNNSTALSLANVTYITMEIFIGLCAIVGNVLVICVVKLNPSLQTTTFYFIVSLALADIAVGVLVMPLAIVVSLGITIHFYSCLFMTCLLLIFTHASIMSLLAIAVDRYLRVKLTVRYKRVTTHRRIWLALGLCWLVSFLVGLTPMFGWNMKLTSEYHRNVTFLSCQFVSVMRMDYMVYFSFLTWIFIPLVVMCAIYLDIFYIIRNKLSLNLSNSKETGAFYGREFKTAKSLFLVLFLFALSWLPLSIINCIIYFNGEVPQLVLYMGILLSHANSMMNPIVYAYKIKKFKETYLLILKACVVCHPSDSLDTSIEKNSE
# [7] = selectivity towards other adenosine receptors
# T1 sequence (P29274 whole entry): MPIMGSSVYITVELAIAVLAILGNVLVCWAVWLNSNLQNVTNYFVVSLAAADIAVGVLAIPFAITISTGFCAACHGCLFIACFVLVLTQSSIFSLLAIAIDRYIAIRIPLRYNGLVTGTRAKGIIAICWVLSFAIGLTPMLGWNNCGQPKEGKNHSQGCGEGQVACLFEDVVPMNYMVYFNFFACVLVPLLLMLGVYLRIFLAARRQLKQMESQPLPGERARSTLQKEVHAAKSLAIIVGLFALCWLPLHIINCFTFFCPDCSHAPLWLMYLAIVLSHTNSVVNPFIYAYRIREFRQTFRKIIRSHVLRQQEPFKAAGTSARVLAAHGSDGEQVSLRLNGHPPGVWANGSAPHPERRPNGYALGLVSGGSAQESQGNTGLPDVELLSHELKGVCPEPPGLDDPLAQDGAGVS
structure (smiles),measurement,setting,value
"Cn1c(=O)c2c(ncn2C)n(C)c1=O [Caffeine, reference compound]",Drug Retention,[1],29.46%
same,"Papp at 5 h, 100 μM","[1]; 100 μM in PBS, 5 h, room temperature, triplicate, read-out: Pe ± SD",6.57 ± 1.57 ×10⁻⁶ cm/s
same,"Papp at 5 h, 100 μM",[1]; read-out: Permeable,≥ 1.5 ×10⁻⁶ cm/s
Cn1c(=O)c2c(nc3n2CCCN3CCc2ccc(O)cc2)n(C)c1=O [KD-114],Ki,human adenosine A2AR; read-out: hA2AR Ki,230 nM
same,Ki,[2]; [7],> 1000 nM
same,Ki,human adenosine A1R; read-out: hA1R Ki,> 25000 nM
same,reduction of edema volume,"[3]; 1st, 2nd and 3rd hour",> 90%
same,edema at the first hour with the tested compound,[3]; control 64%,2%
Nc1nc2c(cnn2CCc2ccccc2)c2nc(-c3ccco3)nn12 [SCH-58261],"effect on pro-inflammatory factors (IL-1ß, IL-6, iNOS, TNF alpha) (in words)",[4],caused a decrease in the above-mentioned cytokines
same,effect in LPS-induced inflammation model (in words),[5],beneficial effects
CCn1c(=O)c2c(nc(NCc3cccc(OC)c3F)n2C)n(C)c1=O [compound 1],"inhibition of edema, 2nd hour",[6],44%
same,"inhibition of edema, 3rd hour",[6],53%
same,Ki,human adenosine A2AR; read-out: A2AR Ki,69 nM
same,Ki,[2]; [7],> 1000 nM
same,Ki,human adenosine A1R; read-out: hA1R Ki,> 1000 nM
CCn1c(=O)c2c(nc(NCc3ccccc3Cl)n2C)n(C)c1=O [compound 2],A2BR % Inhibition ± SEM at 1 µM,human adenosine A2BR; 1 µM,44 ± 10%
same,Ki,human adenosine A2BR; human,> 1000 nM
same,Ki,human adenosine A2AR; read-out: A2AR Ki,71 ± 6 nM
same,Ki,[2],> 1000 nM
same,A1R % Inhibition ± SEM at 1 µM,human adenosine A1R; 1 µM,22 ± 1%
same,Ki,human adenosine A1R; read-out: A1R Ki,> 1000 nM
same,A3R % Inhibition ± SEM at 1 µM,human adenosine A3R; 1 µM,14 ± 1%
same,Ki,human adenosine A3R; human,> 1000 nM

# Reference: PMC10531311, “Anti-Inflammatory Activities of 8-Benzylaminoxanthines Showing High Adenosine A2A and Dual A1/A2A Receptor Affinity” (International Journal of Molecular Sciences, 2023)
